SMILES strings stand for the structures. Active and inactive are the calls of the source. The rule behind the calls is not given here.

Assay [1] addresses T1, Prostaglandin G/H synthase 2 (Homo sapiens) (UniProt P35354).
T1 sequence (whole entry): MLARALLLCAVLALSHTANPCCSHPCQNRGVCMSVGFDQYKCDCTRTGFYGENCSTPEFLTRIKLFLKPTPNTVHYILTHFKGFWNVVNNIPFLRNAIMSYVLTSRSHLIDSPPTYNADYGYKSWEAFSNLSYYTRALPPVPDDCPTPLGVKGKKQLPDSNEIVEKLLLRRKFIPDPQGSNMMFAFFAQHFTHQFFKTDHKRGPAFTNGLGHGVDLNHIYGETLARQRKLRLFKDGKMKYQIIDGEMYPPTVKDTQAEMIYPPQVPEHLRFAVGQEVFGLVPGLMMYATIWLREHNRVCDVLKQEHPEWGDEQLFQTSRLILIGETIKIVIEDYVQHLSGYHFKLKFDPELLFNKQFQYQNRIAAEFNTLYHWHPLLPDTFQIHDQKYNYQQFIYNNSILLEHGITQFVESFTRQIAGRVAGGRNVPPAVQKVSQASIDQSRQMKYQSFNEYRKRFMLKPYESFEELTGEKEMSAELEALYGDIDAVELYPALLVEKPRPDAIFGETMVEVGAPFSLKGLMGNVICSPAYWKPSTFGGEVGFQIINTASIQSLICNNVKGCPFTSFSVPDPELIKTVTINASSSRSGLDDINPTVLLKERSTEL
Put plainly: Inhibition of COX2 at 50 uM.

The test system of another assay is BGC-823. Kind of assay: Cytotoxicity activity against human BGC823 cells after 72 hrs by MTT assay. It counts as functional, cell-based. The note with it: BGC-823, 72 h. (In general: Formazan colour is commonly taken as a measure of viable cells.)
The next assay concerns Bel-7402. Kind of assay: Cytotoxicity activity against human Bel7402 cells after 72 hrs by MTT assay. Conditions: Bel-7402, 72 h. It counts as functional, cell-based.
A further assay deals with A2780. Put plainly: Cytotoxicity activity against human A2780 cells after 72 hrs by MTT assay. It counts as functional, cell-based. Conditions: A2780, 72 h.
A further assay has as its system HCT-8. Put plainly: Cytotoxicity activity against human HCT8 cells after 72 hrs by MTT assay. It counts as functional, cell-based. Conditions: HCT-8, 72 h.
For a further assay, the system named is A549. Kind of assay: Cytotoxicity activity against human A549 cells after 72 hrs by MTT assay. It counts as functional, cell-based.

One may read the inhibition as the relative decrease from the control value, in per cent. The low end stands for a response near the control, the high end for a response far below the control. Consider `C=C1C(=O)O[C@H]2[C@H]1CC[C@](C)(O)[C@]13O[C@H]1[C@H](Cl)[C@](C)(O)[C@H]23`, for which the inhibition in assay [1] came to 98.4%.
In assay [1], `C=C(C(=O)O)C(CCC(C)=O)CC1=C(C)C(=O)CC1=O` (stereo not drawn) displayed an inhibition of 98.2%.
By IC50 is commonly meant the concentration at which inhibition is half-maximal. Read a low IC50 as inhibition by little substance. On to `C=C1C(=O)O[C@@H]2[C@@H]3C4(C=C[C@@]3(C)C3(C4)C(=O)O[C@@H]4[C@H]5C(C)=CC(=O)C5=C(C)C[C@H](O)[C@H]43)[C@@](C)(OC(C)=O)CC[C@@H]12` (stereo partly drawn) [ARTANOMALIDE D], for which the IC50 in the assay with BGC-823 was determined as 8500 nM; with Bel-7402, 3000 nM; with A2780, 1800 nM; with HCT-8, 1900 nM. In the assay with A549, the outcome was inactive. Also, the inhibition in assay [1] came out at 99.5%.

The values are drawn from ChEMBL document CHEMBL1154828, “Dimeric guaianolides and sesquiterpenoids from Artemisia anomala” (J Nat Prod, 2010).
